In patent US11986457B2, “Nutraceutical compositions” (SpecNova LLC, priority 2021, dated 2024):

Biological target: Human Dopamine Transporter (DAT) (Homo sapiens, UniProt Q01959)
Assay: Human Dopamine Transporter (DAT) Binding (Antagonist Radioligand) Assay
Settings: for level of inhibition in the dopamine transporter inhibitory assay: statement in words in the description
Description: Human Dopamine Transporter (DAT) Binding (Antagonist Radioligand) Assay
Nonspecific binding is determined in the presence of 10 μM BTCP. Following incubation, the samples are filtered rapidly under vacuum through glass fiber filters (GF/B, Packard) presoaked with 0.3% PEI and rinsed several times with ice-cold 50 mM Tris-HCl using a 96-sample cell harvester (Unifilter, Packard). The filters are dried then counted for radioactivity in a scintillation counter (Topcount, Packard) using a scintillation cocktail (Microscint 0, Packard). The results are expressed as a percent inhibition of the control radioligand specific binding.

Sequence of Human Dopamine Transporter (DAT) (Q01959 whole entry): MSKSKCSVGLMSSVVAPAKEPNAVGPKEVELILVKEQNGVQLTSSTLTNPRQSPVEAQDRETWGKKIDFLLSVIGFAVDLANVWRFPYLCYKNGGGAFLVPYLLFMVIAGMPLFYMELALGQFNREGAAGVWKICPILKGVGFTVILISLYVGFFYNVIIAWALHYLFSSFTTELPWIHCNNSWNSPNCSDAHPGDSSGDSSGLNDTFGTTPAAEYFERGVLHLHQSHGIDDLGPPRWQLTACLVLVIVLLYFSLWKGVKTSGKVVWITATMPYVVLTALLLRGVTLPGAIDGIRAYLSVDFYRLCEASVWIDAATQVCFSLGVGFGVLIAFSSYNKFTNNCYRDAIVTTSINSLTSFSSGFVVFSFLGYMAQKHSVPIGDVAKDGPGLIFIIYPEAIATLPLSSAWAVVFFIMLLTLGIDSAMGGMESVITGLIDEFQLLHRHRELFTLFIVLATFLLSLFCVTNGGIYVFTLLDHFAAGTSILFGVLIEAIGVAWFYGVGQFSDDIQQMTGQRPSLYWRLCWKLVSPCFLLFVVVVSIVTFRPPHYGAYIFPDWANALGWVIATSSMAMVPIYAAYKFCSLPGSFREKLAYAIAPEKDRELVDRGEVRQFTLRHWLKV

Row | Compound | level of inhibition in the dopamine transporter inhibitory assay | % of Control Specific Binding (mean of two tests) ([3H]BTCP 4 nM radioligand, mean of two tests) [%]
1 | CC(C)=CCc1c(C2CCc3ccc(O)cc3O2)ccc(O)c1O (stereo in doubt) [Kazinol U, 4-[(2S)-7-hydroxy-3,4-dihydro-2H-chromen-2-yl]-3-(3-methylbut-2-enyl)benzene-1,2-diol] | high level of inhibition | –
2 | OC[C@@H](O)[C@@H](/C=C/c1ccc(O)cc1)c1ccc(O)cc1 [Agatharesinol, (2S,3S,4E)-3,5-bis(4-hydroxyphenyl)pent-4-ene-1,2-diol] | extremely high level of inhibition | 4.6
3 | OC[C@@H](O)[C@@H](/C=C/c1ccc(O)cc1)c1ccc(O)c(O)c1 [Sequirin C, 4-[(1S,2E)-1-[(1S)-1,2-dihydroxyethyl]-3-(4-hydroxyphenyl)prop-2-en-1-yl]benzene-1,2-diol] | extremely high level of inhibition | –
